Key:
SR = assay: NCI-60 SRB screen; format: cell-based; conditions: Homo sapiens, single dose 10^−5 M, read-out: Growth inhibition (%)
M14 = assay: NCI-60 SRB screen; format: cell-based, human; conditions: Homo sapiens; M14; single dose 10^−5 M; read-out: Growth inhibition (%)
786-0 = assay: NCI-60 SRB screen; format: cell-based; conditions: Homo sapiens; 786-0; single dose 10^−5 M; read-out: Growth inhibition (%)
SF-295 = assay: NCI-60 SRB screen; format: cell-based, human; conditions: Homo sapiens; SF-295; single dose 10^−5 M; read-out: Growth inhibition (%)
TK-10 = assay: NCI-60 SRB screen; format: cell-based, human; conditions: Homo sapiens; TK-10; single dose 10^−5 M; read-out: Growth inhibition (%)
IGROV1 = assay: NCI-60 SRB screen; format: cell-based, human; conditions: Homo sapiens, IGROV-1; IGROV1; single dose 10^−5 M; read-out: Growth inhibition (%)
[1] = system: panel of 60 cancer cell lines; assay: NCI-60 SRB screen, mean or range over the panel; format: cell-based, human; conditions: Homo sapiens; mean over the cell lines; single dose 10^−5 M; read-out: Mean growth inhibition (%)
UO-31 = assay: NCI-60 SRB screen; format: cell-based, human; conditions: Homo sapiens; UO-31; single dose 10^−5 M; read-out: Growth inhibition (%)
NCI-H522 = assay: NCI-60 SRB screen; format: cell-based, human; conditions: Homo sapiens; NCI-H522; single dose 10^−5 M; read-out: Growth inhibition (%)
HOP-92 = assay: NCI-60 SRB screen; format: cell-based, human; conditions: Homo sapiens; HOP-92; single dose 10^−5 M; read-out: Growth inhibition (%)
NCI-H226 = assay: NCI-60 SRB screen; format: cell-based, human; conditions: Homo sapiens; NCI-H226; single dose 10^−5 M; read-out: Growth inhibition (%)
HCT-15 = assay: NCI-60 SRB screen; format: cell-based, human; conditions: Homo sapiens; HCT-15; single dose 10^−5 M; read-out: Growth inhibition (%)
OVCAR-8 = assay: NCI-60 SRB screen; format: cell-based, human; conditions: Homo sapiens; OVCAR-8; single dose 10^−5 M; read-out: Growth inhibition (%)
SF-268 = assay: NCI-60 SRB screen; format: cell-based, human; conditions: Homo sapiens; SF-268; single dose 10^−5 M; read-out: Growth inhibition (%)
MOLT-4 = assay: NCI-60 SRB screen; format: cell-based; conditions: Homo sapiens; MOLT-4; single dose 10^−5 M; read-out: Growth inhibition (%)
SK-MEL-5 = assay: NCI-60 SRB screen; format: cell-based, human; conditions: Homo sapiens; SK-MEL-5; single dose 10^−5 M; read-out: Growth inhibition (%)
COLO 205 = assay: NCI-60 SRB screen; format: cell-based, human; conditions: Homo sapiens; COLO 205; single dose 10^−5 M; read-out: Growth inhibition (%)
NCI-H23 = assay: NCI-60 SRB screen; format: cell-based, human; conditions: Homo sapiens; NCI-H23; single dose 10^−5 M; read-out: Growth inhibition (%)
CAKI-1 = assay: NCI-60 SRB screen; format: cell-based, human; conditions: Homo sapiens; CAKI-1; single dose 10^−5 M; read-out: Growth inhibition (%)
HOP-62 = assay: NCI-60 SRB screen; format: cell-based, human; conditions: Homo sapiens; HOP-62; single dose 10^−5 M; read-out: Growth inhibition (%)
NCI-H460 = assay: NCI-60 SRB screen; format: cell-based, human; conditions: Homo sapiens; NCI-H460; single dose 10^−5 M; read-out: Growth inhibition (%)
OVCAR-4 = assay: NCI-60 SRB screen; format: cell-based, human; conditions: Homo sapiens; OVCAR-4; single dose 10^−5 M; read-out: Growth inhibition (%)
HT-29 = assay: NCI-60 SRB screen; format: cell-based; conditions: Homo sapiens; HT-29; single dose 10^−5 M; read-out: Growth inhibition (%)
UACC-62 = assay: NCI-60 SRB screen; format: cell-based, human; conditions: Homo sapiens; UACC-62; single dose 10^−5 M; read-out: Growth inhibition (%)
UACC-257 = assay: NCI-60 SRB screen; format: cell-based, human; conditions: Homo sapiens, UACC-257; UACC-275 (so in the source); single dose 10^−5 M; read-out: Growth inhibition (%)
NCI-H322M = assay: NCI-60 SRB screen; format: cell-based, human; conditions: Homo sapiens, single dose 10^−5 M, read-out: Growth inhibition (%)
SN12C = assay: NCI-60 SRB screen; format: cell-based, human; conditions: Homo sapiens, SN12C; SN 12 C; single dose 10^−5 M; read-out: Growth inhibition (%)
OVCAR-3 = assay: NCI-60 SRB screen; format: cell-based, human; conditions: Homo sapiens; OVCAR-3; single dose 10^−5 M; read-out: Growth inhibition (%)
SK-MEL-28 = assay: NCI-60 SRB screen; format: cell-based; conditions: Homo sapiens; SK-MEL-28; single dose 10^−5 M; read-out: Growth inhibition (%)
NCI/ADR-RES = assay: NCI-60 SRB screen; format: cell-based, human; conditions: Homo sapiens, single dose 10^−5 M, read-out: Growth inhibition (%)
K-562 = assay: NCI-60 SRB screen; format: cell-based, human; conditions: Homo sapiens, K562; K-562; single dose 10^−5 M; read-out: Growth inhibition (%)
KM12 = assay: NCI-60 SRB screen; format: cell-based, human; conditions: Homo sapiens; KM12; single dose 10^−5 M; read-out: Growth inhibition (%)
RXF 393 = assay: NCI-60 SRB screen; format: cell-based, human; conditions: Homo sapiens; RXF 393; single dose 10^−5 M; read-out: Growth inhibition (%)
SK-MEL-2 = assay: NCI-60 SRB screen; format: cell-based, human; conditions: Homo sapiens; SK-MEL-2; single dose 10^−5 M; read-out: Growth inhibition (%)
ACHN = assay: NCI-60 SRB screen; format: cell-based; conditions: Homo sapiens, single dose 10^−5 M, read-out: Growth inhibition (%)
MDA-MB-435 = assay: NCI-60 SRB screen; format: cell-based; conditions: Homo sapiens, MDA-MB-435, read-out: Growth inhibition (%)
SK-OV-3 = assay: NCI-60 SRB screen; format: cell-based, human; conditions: Homo sapiens; SK-OV-3; single dose 10^−5 M; read-out: Growth inhibition (%)
LOX IMVI = assay: NCI-60 SRB screen; format: cell-based, human; conditions: Homo sapiens, single dose 10^−5 M, read-out: Growth inhibition (%)
SW-620 = assay: NCI-60 SRB screen; format: cell-based; conditions: Homo sapiens; SW-620; single dose 10^−5 M; read-out: Growth inhibition (%)
A549/ATCC = assay: NCI-60 SRB screen; format: cell-based, human; conditions: Homo sapiens, single dose 10^−5 M, read-out: Growth inhibition (%)
EKVX = assay: NCI-60 SRB screen; format: cell-based, human; conditions: Homo sapiens, single dose 10^−5 M, read-out: Growth inhibition (%)
HCC-2998 = assay: NCI-60 SRB screen; format: cell-based, human; conditions: Homo sapiens; HCC-2998; single dose 10^−5 M; read-out: Growth inhibition (%)
HCT-116 = assay: NCI-60 SRB screen; format: cell-based, human; conditions: Homo sapiens; HCT-116; single dose 10^−5 M; read-out: Growth inhibition (%)
HL-60(TB) = assay: NCI-60 SRB screen; format: cell-based, human; conditions: Homo sapiens; HL-60 (TB); single dose 10^−5 M; read-out: Growth inhibition (%)

O=C1NC(c2cccc([N+](=O)[O-])c2)c2sc3c(F)cccc3c2C1N1CCCCC1 (stereo not shown) [Compound 6c, 8-Fluoro-1-(3-nitrophenyl)-4-(piperidin-1-yl)-1,2-dihydro[1]benzothieno [2,3-c]pyridin-3(4H)-one]
inhibition at 10 µM (SR): 0.3% | inhibition at 10 µM (M14): 1.9% | inhibition at 10 µM (786-0): -6.36% | inhibition at 10 µM (SF-295): 2.28% | inhibition at 10 µM (TK-10): -42.2% | inhibition at 10 µM (IGROV1): 20.7% | inhibition at 10 µM [1]: 2.54% | inhibition at 10 µM (UO-31): 32.2% | inhibition at 10 µM (NCI-H522): 14% | inhibition at 10 µM (HOP-92): 14.1% | inhibition at 10 µM (NCI-H226): 8.71% | inhibition at 10 µM (HCT-15): 3.74% | inhibition at 10 µM (OVCAR-8): 5% | inhibition at 10 µM (SF-268): 2.64% | inhibition at 10 µM (MOLT-4): 8.91% | inhibition at 10 µM (SK-MEL-5): 1.15% | inhibition at 10 µM (COLO 205): -12.7% | inhibition at 10 µM (NCI-H23): 5.16% | inhibition at 10 µM (CAKI-1): 17.6% | inhibition at 10 µM (HOP-62): 11.5% | inhibition at 10 µM (NCI-H460): -0.58% | inhibition at 10 µM (OVCAR-4): -4.39% | inhibition at 10 µM (HT-29): 9% | inhibition at 10 µM (UACC-62): 4.85% | inhibition at 10 µM (UACC-257): -6.77% | inhibition at 10 µM (NCI-H322M): 2.6% | inhibition at 10 µM (SN12C): 2.45% | inhibition at 10 µM (OVCAR-3): -2.74% | inhibition at 10 µM (SK-MEL-28): -12.4% | inhibition at 10 µM (NCI/ADR-RES): -1.66% | inhibition at 10 µM (K-562): 6.11% | inhibition at 10 µM (KM12): 2.91% | inhibition at 10 µM (RXF 393): 6.16% | inhibition at 10 µM (SK-MEL-2): -8.06% | inhibition at 10 µM (ACHN): 9.32% | inhibition at 10 µM (MDA-MB-435): -8.63% | inhibition at 10 µM (SK-OV-3): -0.84% | inhibition at 10 µM (LOX IMVI): 2.5% | inhibition at 10 µM (SW-620): 7.46% | inhibition at 10 µM (A549/ATCC): -0.32% | inhibition at 10 µM (EKVX): 5.86% | inhibition at 10 µM (HCC-2998): 2.82% | inhibition at 10 µM (HCT-116): 20.6% | inhibition at 10 µM (HL-60(TB)): -17%

O=[N+]([O-])c1cccc(C2NC(Cl)=C(Cl)c3c2sc2c(F)cccc32)c1 (stereo not shown) [Compound 7a, 3,4-Dichloro-8-fluoro-1-(3-nitrophenyl)-1,2-dihydro[1]benzothieno[2,3-c] pyridine]
inhibition at 10 µM (SR): 16.2% | inhibition at 10 µM (M14): 4.95% | inhibition at 10 µM (786-0): -7.16% | inhibition at 10 µM (SF-295): -2.06% | inhibition at 10 µM (TK-10): -37.2% | inhibition at 10 µM (IGROV1): 10.7% | inhibition at 10 µM [1]: 3.15% | inhibition at 10 µM (UO-31): 30.2% | inhibition at 10 µM (NCI-H522): 12.7% | inhibition at 10 µM (HOP-92): 14.7% | inhibition at 10 µM (NCI-H226): 14.2% | inhibition at 10 µM (HCT-15): -1.63% | inhibition at 10 µM (OVCAR-8): 1.9% | inhibition at 10 µM (SF-268): 5.16% | inhibition at 10 µM (MOLT-4): 15.2% | inhibition at 10 µM (SK-MEL-5): 1.94% | inhibition at 10 µM (COLO 205): -14.6% | inhibition at 10 µM (NCI-H23): 8.55% | inhibition at 10 µM (CAKI-1): 18.8% | inhibition at 10 µM (HOP-62): 15.5% | inhibition at 10 µM (NCI-H460): 1.24% | inhibition at 10 µM (OVCAR-4): 3.16% | inhibition at 10 µM (HT-29): -1.97% | inhibition at 10 µM (UACC-62): 7.18% | inhibition at 10 µM (UACC-257): -7.18% | inhibition at 10 µM (NCI-H322M): -2.48% | inhibition at 10 µM (SN12C): 2.54% | inhibition at 10 µM (OVCAR-3): -3.96% | inhibition at 10 µM (SK-MEL-28): -11.4% | inhibition at 10 µM (NCI/ADR-RES): -2.76% | inhibition at 10 µM (K-562): 18% | inhibition at 10 µM (KM12): 3.25% | inhibition at 10 µM (RXF 393): 7.81% | inhibition at 10 µM (SK-MEL-2): -5.95% | inhibition at 10 µM (ACHN): 6.96% | inhibition at 10 µM (MDA-MB-435): -9.15% | inhibition at 10 µM (SK-OV-3): 5.95% | inhibition at 10 µM (LOX IMVI): 1.24% | inhibition at 10 µM (SW-620): 4.18% | inhibition at 10 µM (A549/ATCC): 2.3% | inhibition at 10 µM (EKVX): 7.1% | inhibition at 10 µM (HCC-2998): -16.1% | inhibition at 10 µM (HCT-116): 13.4% | inhibition at 10 µM (HL-60(TB)): -8.33%
